Laboratory results: patent US10000471B2, “Pyrazole P38 map kinase inhibitors” (Respivert Limited, priority 2010, dated 2018)

What was measured:
[1] = target: T1, p38 MAPKα isoform (MAPK14) (Homo sapiens, UniProt Q16539); test: Enzyme inhibition assay (FRET, Z-LYTE), p38 MAPKα via MAPKAP-K2 activation; type: biochemical; conditions: read-out: Enzyme Inhibition IC50 p38α
T1 construct: purchased Invitrogen
In short: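 Recombinant p38 MAPKα was preincubated with compound for 2 h at RT. Its activity was measured indirectly through activation/phosphorylation of downstream MAPKAP-K2, with a Z-LYTE FRET peptide read-out (coumarin/fluorescein ratio) after a 1 h development step. IC50 came from concentration-response curves of percent inhibition versus an uninhibited control.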

p38 MAPKγ (MAPK12) = target: T2, p38 MAPKγ (MAPK12) (Homo sapiens, UniProt P53778); test: Enzyme inhibition assay (FRET, Z-LYTE), p38 MAPKγ; type: biochemical; conditions: read-out: Enzyme Inhibition IC50 p38γ
T2 construct: purchased Invitrogen
T2 sequence (P53778 1-367): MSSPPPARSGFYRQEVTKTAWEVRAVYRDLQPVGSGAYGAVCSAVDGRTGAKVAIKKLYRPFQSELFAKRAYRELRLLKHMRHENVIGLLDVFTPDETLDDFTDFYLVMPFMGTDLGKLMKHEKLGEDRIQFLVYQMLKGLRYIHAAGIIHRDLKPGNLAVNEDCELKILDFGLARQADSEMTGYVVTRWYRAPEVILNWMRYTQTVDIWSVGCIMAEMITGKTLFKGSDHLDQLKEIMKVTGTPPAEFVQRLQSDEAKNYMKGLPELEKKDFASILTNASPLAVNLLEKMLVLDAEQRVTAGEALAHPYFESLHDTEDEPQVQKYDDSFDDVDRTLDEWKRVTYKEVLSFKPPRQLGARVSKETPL
In short: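 Recombinant phosphorylated p38 MAPKγ preincubated 2 h at RT with compound in HEPES buffer, then 2 μM FRET peptide and 100 μM ATP added for 1 h; protease development 1 h. Coumarin/fluorescein emission ratio gave phosphorylation; IC50 from concentration-response versus uninhibited control.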

[2] = test system: TNFα release in THP-1 cells; test: LPS-induced TNFα release in THP-1 cells; type: cell-based, human; conditions: Homo sapiens
In short: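 Human monocytic THP-1 cells stimulated with 3 μg/mL E. coli LPS for 4 hr; supernatant TNFα measured by sandwich ELISA. Inhibition at each concentration versus vehicle control, IC50 from concentration-response curve.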

[3] = test system: TNFα release in d-U937 cells; test: LPS-induced TNFα release in d-U937 cells; type: cell-based, human; conditions: Homo sapiens, dU937, relative to 10 μg/mL BIRB796, read-out: LPS/TNFα REC50 d-U937
In short: (§1)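 PMA-differentiated (100 ng/ml, 48–72 hr) U937 macrophage-type cells pre-incubated 2 hr with compound, then stimulated 4 hr with 0.1 μg/mL E. coli O111:B4 LPS; supernatant TNFα and IL-8 measured by sandwich ELISA. TNFα inhibition expressed relative to 10 μg/mL BIRB796, giving REC50; IL-8 inhibition versus vehicle, giving IC50.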

[4] = test system: IL-8 release in d-U937 cells; test: LPS-induced IL-8 release in d-U937 cells; type: cell-based, human; conditions: Homo sapiens, dU937
In short: as §1

[5] = test system: ICAM-1 induction in BEAS2B cells; test: Poly I:C-induced ICAM-1 induction in BEAS2B cells; type: cell-based, human; conditions: Homo sapiens, BEAS-2B, read-out: PolyIC/ICAM1 IC50 BEAS2B
In short: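 Human bronchial epithelial BEAS2B cells were pre-incubated with compound for 2 hr, then transfected with 1 μg/mL poly I:C. After 18 hr, surface ICAM-1 was measured by cell-based ELISA (OD450-655) and normalized to crystal violet cell counts (OD595). IC50 came from inhibition versus vehicle across the concentration-response curve.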

[6] = test system: Differentiated U937 cells; test: Cell viability MTT assay; type: cell-based, human; conditions: negative = apparent increase in viability; for MTT Assay (Viability) 4 h d-U937, percentage loss of cell viability: 4 hr in 5% FCS; for MTT Assay (Viability) 24 h d-U937, percentage loss of cell viability: 24 h in 10% FCS
In short: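 Differentiated U937 cells pre-incubated with compound either 4 hr in 5% FCS or 24 h in 10% FCS, then 1 hr MTT. Formazan dissolved in DMSO, absorbance at 550 nm. Percentage viability loss relative to 0.5% DMSO vehicle; apparent increases appear as negative percentages.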

T1 sequence (Q16539 whole entry, canonical isoform): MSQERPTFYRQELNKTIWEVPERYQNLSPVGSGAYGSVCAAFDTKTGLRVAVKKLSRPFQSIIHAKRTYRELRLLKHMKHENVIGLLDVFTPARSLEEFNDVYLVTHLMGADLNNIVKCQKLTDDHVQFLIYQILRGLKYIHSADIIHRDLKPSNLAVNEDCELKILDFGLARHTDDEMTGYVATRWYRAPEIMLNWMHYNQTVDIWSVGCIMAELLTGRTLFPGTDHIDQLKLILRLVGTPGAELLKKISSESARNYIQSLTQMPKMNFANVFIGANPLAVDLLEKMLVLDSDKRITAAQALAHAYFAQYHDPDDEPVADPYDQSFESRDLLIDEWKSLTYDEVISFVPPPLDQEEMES

SMILES	IC50 [1] [nM]	IC50 (p38 MAPKγ (MAPK12)) [nM]	IC50 [2] [nM]	EC50 [3] [nM]	IC50 [4] [nM]	IC50 [5] [nM]	MTT Assay (Viability) 4 h d-U937, percentage loss of cell viability [6] [%]	MTT Assay (Viability) 24 h d-U937, percentage loss of cell viability [6] [%]
CNC(=O)Nc1cc(Oc2ccc(NC(=O)Nc3cc(C(C)(C)C)nn3-c3ccc(C)cc3)c(Cl)c2Cl)ccn1 [Example 50, 1-(3-tert-butyl-1-p-tolyl-1H-pyrazol-5-yl)-3-(2,3-dichloro-4-(2-(3-methylureido)pyridin-4-yloxy)phenyl)urea]	41.2	59.2	1.3	0.2	0.6	1.1	−5.4	35.9
CNC(=O)Nc1cc(Oc2ccc(NC(=O)Nc3cc(C(C)(C)C)nn3-c3ccc(CO)c(OC)c3)c(Cl)c2Cl)ccn1 [Example 53, 1-(3-tert-butyl-1-(4-hydroxymethyl-3-methoxy-phenyl)-1H-pyrazol-5-yl)-3-(2,3-dichloro-4-(2-(3-methylureido)pyridin-4-yloxy)phenyl)urea]	46.9	35.8	1.8	1.3	7.7	2.2	−1.1	87.8
CNC(=O)Nc1cc(Oc2ccc(NC(=O)Nc3cc(C(C)(C)C)nn3-c3ccc(CO)c(Cl)c3)c(Cl)c2Cl)ccn1 [Example 54, 1-(3-tert-butyl-1-(3-chloro-4-hydroxymethylphenyl)-1H-pyrazol-5-yl)-3-(2,3-dichloro-4-(2-(3-methylureido)pyridin-4-yloxy)phenyl)urea]	87.7	52.8	2.2	0.3	3.2	2.5	−34.9	71.2
CC(C)(C)c1cc(NC(=O)Nc2ccc(Oc3ccnc(NC(=O)NC4CC4)c3)c(Cl)c2Cl)n(-c2ccc(CO)cc2)n1 [Example 55, 1-(4-(4-(3-(3-tert-butyl-1-(4-hydroxymethylphenyl)-1H-pyrazol-5-yl)ureido)-2,3-dichlorophenoxy)pyridin-2-yl)-3-cyclopropylurea]	50.1	200	4.8	1	3.1	1.7	−15.0	49.2
CNC(=O)Nc1cc(Oc2ccc(NC(=O)Nc3cc(C(C)(C)C)nn3-c3ccc(C)cc3)c3ncccc23)ccn1 [Example 56, 1-(3-tert-butyl-1-p-tolyl-1H-pyrazol-5-yl)-3-(5-(2-(3-methylureido)pyridin-4-yloxy)quinolin-8-yl)urea]	52.4	194	8.6	0.9	4.6	12.3	−25.5	−28.0
CNC(=O)Nc1cc(Oc2ccc(NC(=O)Nc3cc(C(C)(C)C)nn3-c3ccc(OC)cc3)c3cccnc23)ccn1 [Example 58, 1-(3-tert-butyl-1-(4-methoxyphenyl)-1H-pyrazol-5-yl)-3-(8-(2-(3-methylureido)pyridin-4-yloxy)quinolin-5-yl)urea]	34.1	176	2.2	2.1	3.3	13.2	−12.4	−29.0
CNC(=O)Nc1cc(Oc2ccc(NC(=O)Nc3cc(C(C)(C)C)nn3-c3ccc(C(=O)OC)cc3)c(Cl)c2Cl)ccn1 [Example 59, methyl 4-(3-tert-butyl-5-(3-(2,3-dichloro-4-(2-(3-methylureido)pyridin-4-yloxy)phenyl)ureido)-1H-pyrazol-1-yl)benzoate]	125	198	2	1.6	1.9	0.9	−24.8	0.0
CNC(=O)Nc1cc(Oc2ccc(NC(=O)Nc3cc(C(C)(C)C)nn3-c3ccc(C(=O)O)cc3)c(Cl)c2Cl)ccn1 [Example 60, 4-(3-tert-butyl-5-(3-(2,3-dichloro-4-(2-(3-methylureido)pyridin-4-yloxy)phenyl)ureido)-1H-pyrazol-1-yl)benzoic acid]	10.3	12.9	22.7	9.2	23.5	> 163	−15.4	−52.4
CNC(=O)Nc1cc(Oc2ccc(NC(=O)Nc3cc(C(C)(C)C)nn3-c3ccc(CO)cc3)c3ncccc23)ccn1 [Example 61, 1-(4-(8-(3-(3-tert-butyl-1-(4-hydroxymethylphenyl)-1H-pyrazol-5-yl)ureido)quinolin-5-yloxy)pyridin-2-yl)-3-methylurea]	32.7	94	2.5	182	235	11.4	−31.9	−12.9

Further compounds by falling IC50 [1], results first:

IC50 [1] [nM]	IC50 (p38 MAPKγ (MAPK12)) [nM]	IC50 [2] [nM]	EC50 [3] [nM]	IC50 [4] [nM]	SMILES	IC50 [5] [nM]	MTT Assay (Viability) 4 h d-U937, percentage loss of cell viability [6] [%]	MTT Assay (Viability) 24 h d-U937, percentage loss of cell viability [6] [%]
47.3	167	14.9	2.3	3	CNC(=O)Nc1cc(Oc2ccc(NC(=O)Nc3cc(C(C)(C)C)nn3-c3ccc(OC)cc3)c3ncccc23)ccn1 [Example 57, 1-(3-tert-butyl-1-(4-methoxyphenyl)-1H-pyrazol-5-yl)-3-(5-(2-(3-methylureido)pyridin-4-yloxy)quinolin-8-yl)urea]	142	−23.6	−56.2
34.2	174	0.7	1.2	6.8	CNC(=O)Nc1cc(Oc2ccc(NC(=O)Nc3cc(C(C)(C)C)nn3-c3ccc(O)cc3)c(Cl)c2Cl)ccn1 [Example 51, 1-(3-tert-butyl-1-(4-hydroxyphenyl)-1H-pyrazol-5-yl)-3-(2,3-dichloro-4-(2-(3-methylureido)pyridin-4-yloxy)phenyl)urea]	0.7	−17.3	57.3
16.8	32.1	1	0.5	1.9	CNC(=O)Nc1cc(Oc2ccc(NC(=O)Nc3cc(C(C)(C)C)nn3-c3ccc(CO)cc3)c(Cl)c2Cl)ccn1 [Example 52, 1-(3-tert-butyl-1-(4-hydroxymethylphenyl)-1H-pyrazol-5-yl)-3-(2,3-dichloro-4-(2-(3-methylureido)pyridin-4-yloxy)phenyl)urea]	2.4	−43.8	8.1
16.5	36	1.2	0.7	2.2	COCC(=O)Nc1cc(Oc2ccc(NC(=O)Nc3cc(C(C)(C)C)nn3-c3ccc(CO)cc3)c(Cl)c2Cl)ccn1 [Example 49, N-(4-(4-(3-(3-tert-butyl-1-(4-hydroxymethylphenyl)-1H-pyrazol-5-yl)ureido)-2,3-dichlorophenoxy)pyridin-2-yl)-2-methoxyacetamide]	1.5	−4.8	92.2
